Test results from patent US10670605B2, “Cysteine reactive probes and uses thereof” (The Scripps Research Institute, priority 2015, dated 2020).
Where “and” joins values, the source holds several entries; their conditions need not be identical. Equal values may be shown once.

Assays:
Test in all cases: Competitive isoTOP-ABPP, cell lysates
Assay type in all cases: binding
[1] = target: T1, DDX59 C414 (Q5T1V6) (Homo sapiens, UniProt Q5T1V6); conditions: for isoTOP-ABPP reactivity profile ratio, Q5T1V6_C414 / isoTOP-ABPP reactivity ratio, Q5T1V6_C414: 500 μm
T1 sequence (Q5T1V6 1-619): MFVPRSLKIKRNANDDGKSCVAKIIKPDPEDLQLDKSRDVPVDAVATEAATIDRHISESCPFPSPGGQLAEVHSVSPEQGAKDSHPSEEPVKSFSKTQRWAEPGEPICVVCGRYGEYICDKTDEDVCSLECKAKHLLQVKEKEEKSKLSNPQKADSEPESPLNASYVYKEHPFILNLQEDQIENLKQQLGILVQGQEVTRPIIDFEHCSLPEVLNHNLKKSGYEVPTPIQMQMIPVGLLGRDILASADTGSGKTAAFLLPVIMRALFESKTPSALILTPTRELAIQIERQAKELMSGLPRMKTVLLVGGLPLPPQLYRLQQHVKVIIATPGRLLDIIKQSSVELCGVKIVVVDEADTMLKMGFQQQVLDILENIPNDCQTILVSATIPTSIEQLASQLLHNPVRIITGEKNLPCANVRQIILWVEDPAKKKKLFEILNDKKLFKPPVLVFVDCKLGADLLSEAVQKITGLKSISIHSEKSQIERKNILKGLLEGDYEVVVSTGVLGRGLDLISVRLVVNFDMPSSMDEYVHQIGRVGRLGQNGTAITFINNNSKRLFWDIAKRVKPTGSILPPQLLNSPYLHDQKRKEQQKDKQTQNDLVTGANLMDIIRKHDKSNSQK

[2] = target: RRAGC C377 (Q9HB90) (Homo sapiens, UniProt Q9HB90); conditions: for isoTOP-ABPP reactivity profile ratio, Q9HB90_C377 / isoTOP-ABPP reactivity ratio, Q9HB90_C377: 500 μm; for R value (DMSO/fragment): in vitro, MDA-MB-231; for isoTOP-ABPP ratio, Q9HB90_C377: invitro
[3] = target: T2, KDM4B C694 (O94953) (Homo sapiens, UniProt O94953); conditions: for isoTOP-ABPP reactivity ratio, O94953_C694 / isoTOP-ABPP reactivity profile ratio, O94953_C694: 500 μm
T2 sequence (O94953 1-1096): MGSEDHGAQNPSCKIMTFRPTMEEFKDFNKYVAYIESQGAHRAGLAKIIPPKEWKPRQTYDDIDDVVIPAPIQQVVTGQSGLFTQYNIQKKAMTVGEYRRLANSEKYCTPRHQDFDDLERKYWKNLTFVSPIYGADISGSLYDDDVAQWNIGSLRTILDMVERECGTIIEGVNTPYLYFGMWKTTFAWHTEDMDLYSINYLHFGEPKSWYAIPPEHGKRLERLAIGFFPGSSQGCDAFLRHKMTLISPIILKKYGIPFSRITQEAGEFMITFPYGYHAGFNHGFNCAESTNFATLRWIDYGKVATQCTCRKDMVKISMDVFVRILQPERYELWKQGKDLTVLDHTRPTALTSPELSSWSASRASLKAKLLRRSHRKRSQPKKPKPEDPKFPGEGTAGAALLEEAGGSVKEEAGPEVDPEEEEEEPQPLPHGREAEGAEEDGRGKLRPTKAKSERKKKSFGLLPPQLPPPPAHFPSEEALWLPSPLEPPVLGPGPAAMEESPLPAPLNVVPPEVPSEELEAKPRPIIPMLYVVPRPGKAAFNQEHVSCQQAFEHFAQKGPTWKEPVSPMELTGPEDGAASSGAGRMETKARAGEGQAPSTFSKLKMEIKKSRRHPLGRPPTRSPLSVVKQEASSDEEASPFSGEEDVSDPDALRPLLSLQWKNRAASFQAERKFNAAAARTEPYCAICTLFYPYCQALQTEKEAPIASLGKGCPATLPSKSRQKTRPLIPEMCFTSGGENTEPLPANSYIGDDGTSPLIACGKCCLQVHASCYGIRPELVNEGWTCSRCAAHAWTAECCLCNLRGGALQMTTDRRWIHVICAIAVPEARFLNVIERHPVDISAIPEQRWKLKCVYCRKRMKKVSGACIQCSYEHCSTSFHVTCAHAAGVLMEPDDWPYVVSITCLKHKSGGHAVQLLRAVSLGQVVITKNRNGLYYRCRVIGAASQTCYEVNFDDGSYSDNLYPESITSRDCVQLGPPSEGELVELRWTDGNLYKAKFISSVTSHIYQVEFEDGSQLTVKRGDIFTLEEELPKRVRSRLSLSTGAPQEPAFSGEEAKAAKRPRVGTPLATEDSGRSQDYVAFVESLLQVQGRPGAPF

Chain of RRAGC C377 (Q9HB90) (Q9HB90 2-399 limits assumed): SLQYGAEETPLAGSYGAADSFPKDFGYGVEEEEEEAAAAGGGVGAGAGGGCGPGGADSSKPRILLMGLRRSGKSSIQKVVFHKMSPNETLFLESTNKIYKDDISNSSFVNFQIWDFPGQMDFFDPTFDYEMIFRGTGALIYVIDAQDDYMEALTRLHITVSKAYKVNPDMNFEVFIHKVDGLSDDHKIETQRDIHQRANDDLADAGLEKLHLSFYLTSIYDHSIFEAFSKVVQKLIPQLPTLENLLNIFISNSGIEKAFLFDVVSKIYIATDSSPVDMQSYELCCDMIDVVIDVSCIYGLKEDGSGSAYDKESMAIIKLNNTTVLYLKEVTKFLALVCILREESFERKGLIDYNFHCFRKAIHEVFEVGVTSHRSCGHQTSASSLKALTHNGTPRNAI
Chain of RRAGC C377 (Q9HB90) (Q7L523 whole entry partner, the tested form may be a part): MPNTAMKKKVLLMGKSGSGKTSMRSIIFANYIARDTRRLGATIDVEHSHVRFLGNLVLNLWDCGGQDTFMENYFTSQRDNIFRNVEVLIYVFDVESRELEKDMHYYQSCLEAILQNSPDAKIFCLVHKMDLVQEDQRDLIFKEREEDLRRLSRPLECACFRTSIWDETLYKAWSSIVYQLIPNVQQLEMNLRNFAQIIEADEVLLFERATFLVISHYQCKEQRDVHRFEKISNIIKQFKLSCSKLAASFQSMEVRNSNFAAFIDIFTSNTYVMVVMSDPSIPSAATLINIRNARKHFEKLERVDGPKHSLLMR

O=C(CCl)NC1C(O)OC(CO)C(O)C1O (mixture of isomers) [compound 44]
isoTOP-ABPP reactivity profile ratio, Q5T1V6_C414 ([1]; in-vitro_ramos_231): 0.8
isoTOP-ABPP reactivity profile ratio, Q9HB90_C377 ([2]; in-vitro_ramos_231): 0.7

COc1ccc2c(c1)CCCN2C(=O)CCl [compound 2]
R value (DMSO/fragment) ([1]; 500 μM, in vitro, MDA-MB-231): 20.0
R value (DMSO/fragment) ([1]; 500 μM, invitro, ramos): 20.0
R value (DMSO/fragment) ([3]; 500 μM, in vitro, MDA-MB-231): 20.0
R value (DMSO/fragment) ([3]; 500 μM, invitro, ramos): 5.1
R value (DMSO/fragment) ([2]; 500 μM): 20.0

O=C(CCl)Nc1cc(C(F)(F)F)cc(C(F)(F)F)c1 [compound 3]
R value (DMSO/fragment) ([1]; 500 μM, invitro, ramos): 6.0
R value (DMSO/fragment) ([3]; 500 μM, in vitro, MDA-MB-231): 20.0
R value (DMSO/fragment) ([3]; 500 μM, invitro, ramos): 7.4
R value (DMSO/fragment) ([2]; 500 μM): 3.7

COc1ccc(C2CC(c3cccs3)=NN2C(=O)CCl)cc1 (stereo not drawn) [compound 4]
R value (DMSO/fragment) ([3]; 250 μM, in vitro, MDA-MB-231): 20.0
R value (DMSO/fragment) ([2]; 250 μM): 3.5

CNS(=O)(=O)C=Cc1ccc2c(ccn2Cc2ccccc2)c1 [compound 6]
isoTOP-ABPP ratio, O94953_C694 ([3]; 500 μM, invitro, 231): 1.1

O=C(CCl)N1CCN(S(=O)(=O)c2ccccc2F)CC1 [compound 10]
isoTOP-ABPP ratio, O94953_C694 ([3]; 500 μM, invitro, ramos): 1.4

Cn1cc(S(=O)(=O)N2CCOCC2)cc1C(=O)NC(=O)CCl [compound 11]
isoTOP-ABPP ratio, O94953_C694 ([3]; 500 μM, invitro, ramos): 1.9
isoTOP-ABPP ratio, Q9HB90_C377 ([2]; 500 μM, ramos): 1.6

O=C(CCl)NCCc1c[nH]c2ccccc12 [compound 13]
isoTOP-ABPP ratio, Q5T1V6_C414 ([1]; 500 μM, invitro, ramos): 1.2
isoTOP-ABPP ratio, O94953_C694 ([3]; 500 μM, invitro, 231): 1.4
isoTOP-ABPP ratio, O94953_C694 ([3]; 500 μM, invitro, ramos): 1.1
isoTOP-ABPP ratio, Q9HB90_C377 ([2]; 500 μM, 231): 2.1

C=CC(=O)N(Cc1cccnc1)c1ccc(Oc2ccccc2)c(C(F)(F)F)c1 [compound 15]
isoTOP-ABPP ratio (reactivity profile), Q5T1V6_C414 ([1]; 500 μm in-vitro ramos): 1.0
isoTOP-ABPP ratio (reactivity profile), O94953_C694 ([3]; 500 μm in-vitro ramos): 1.1

O=C(CCl)N1CCC(C(O)(c2ccccc2)c2ccccc2)CC1 [compound 20]
isoTOP-ABPP ratio (reactivity profile), Q5T1V6_C414 ([1]; 500 μm in-vitro ramos): 3.1
isoTOP-ABPP ratio (reactivity profile), O94953_C694 ([3]; 500 μm in-vitro ramos): 2.0
isoTOP-ABPP ratio (reactivity profile), O94953_C694 ([3]; 500 μm in-vitro ramos_231): 2.8

O=C(CCl)NC12CC3CC(CC(C3)C1)C2 [compound 21]
isoTOP-ABPP ratio (reactivity profile), Q5T1V6_C414 ([1]; 500 μm in-vitro ramos_231): 1.2
isoTOP-ABPP ratio (reactivity profile), O94953_C694 ([3]; 500 μm in-vitro ramos): 1.8
isoTOP-ABPP ratio (reactivity profile), Q9HB90_C377 ([2]; 500 μm in-vitro ramos_231): 1.4

O=C(CCl)N1CCOCC1 [compound 22]
isoTOP-ABPP ratio (reactivity profile), Q5T1V6_C414 ([1]; 500 μm in-vitro ramos): 1.3
isoTOP-ABPP ratio (reactivity profile), Q9HB90_C377 ([2]; 500 μm in-vitro ramos): 0.9
isoTOP-ABPP ratio (reactivity profile), Q9HB90_C377 ([2]; 500 μm in-vitro ramos_231): 1.7

N#C/C(=C\c1cc(C(F)(F)F)cc(C(F)(F)F)c1)C(N)=O [compound 23]
isoTOP-ABPP ratio (reactivity profile), Q5T1V6_C414 ([1]; 500 μm in-vitro ramos): 1.4
isoTOP-ABPP ratio (reactivity profile), O94953_C694 ([3]; 500 μm in-vitro ramos): 3.2
isoTOP-ABPP ratio (reactivity profile), Q9HB90_C377 ([2]; 500 μm in-vitro ramos_231): 1.5

CC(Br)C(=O)Nc1cc(C(F)(F)F)cc(C(F)(F)F)c1 (stereo not drawn) [compound 24]
isoTOP-ABPP ratio (reactivity profile), Q5T1V6_C414 ([1]; 500 μm in-vitro ramos): 1.7
isoTOP-ABPP ratio (reactivity profile), Q9HB90_C377 ([2]; 500 μm in-vitro ramos): 1.5

CC(Cl)C(=O)Nc1cc(C(F)(F)F)cc(C(F)(F)F)c1 (stereo not drawn) [compound 25]
isoTOP-ABPP ratio (reactivity profile), Q9HB90_C377 ([2]; 500 μm in-vitro ramos_231): 1.0

CC(C)CCOCCNC(=O)CCl [compound 27]
isoTOP-ABPP ratio (reactivity profile), Q5T1V6_C414 ([1]; 500 μm in-vitro ramos): 1.0
isoTOP-ABPP ratio (reactivity profile), Q5T1V6_C414 ([1]; 500 μm in-vitro ramos_231): 0.8
isoTOP-ABPP ratio (reactivity profile), O94953_C694 ([3]; 500 μm in-vitro ramos_231): 1.4 and 1.0
isoTOP-ABPP ratio (reactivity profile), Q9HB90_C377 ([2]; 500 μm in-vitro ramos_231): 1.0

COc1ccccc1OCCNC(=O)CCl [compound 28]
isoTOP-ABPP ratio (reactivity profile), Q9HB90_C377 ([2]; 500 μm in-vitro ramos_231): 1.3

O=C(CCl)N1CCN(CC(=O)N2CCOCC2)CC1 [compound 29]
isoTOP-ABPP ratio (reactivity profile), O94953_C694 ([3]; 500 μm in-vitro ramos_231): 1.2
isoTOP-ABPP ratio (reactivity profile), Q9HB90_C377 ([2]; 500 μm in-vitro ramos_231): 1.3

CCN(CC)c1ccc(S(N)(=O)=O)cc1NC(=O)CCl [compound 30]
isoTOP-ABPP reactivity ratio, Q5T1V6_C414 ([1]; in-vitro_ramos): 2.0
isoTOP-ABPP ratio (reactivity profile), Q9HB90_C377 ([2]; 500 μm in-vitro ramos): 1.4

C=CC(=O)N(Cc1cccnc1)c1cc(C(F)(F)F)cc(C(F)(F)F)c1 [compound 31]
isoTOP-ABPP reactivity ratio, Q9HB90_C377 ([2]; in-vitro_ramos_231): 2.2

CC(C)(C)c1cc(NC(=O)CCl)on1 [compound 32]
isoTOP-ABPP reactivity ratio, Q9HB90_C377 ([2]; in-vitro_ramos): 1.5

O=C(CCl)N(Cc1ccc(F)cc1)C12CC3CC(CC(C3)C1)C2 [compound 34]
isoTOP-ABPP reactivity ratio, Q5T1V6_C414 ([1]; in-vitro_ramos_231): 0.6

O=C(CCl)Nc1ccccc1C1CCCCCC1 [compound 35]
isoTOP-ABPP reactivity ratio, Q5T1V6_C414 ([1]; in-vitro_ramos): 1.3
isoTOP-ABPP reactivity ratio, O94953_C694 ([3]; in-vitro_ramos): 1.1

C=CC(=O)N1CCC(c2noc3ccc(F)cc23)CC1 [compound 37]
isoTOP-ABPP reactivity ratio, Q5T1V6_C414 ([1]; in-vitro_ramos): 1.0
isoTOP-ABPP reactivity ratio, O94953_C694 ([3]; in-vitro_ramos): 1.1

C=CC(=O)Nc1cc(F)c(N2CCN(C(=O)OC(C)(C)C)CC2)c(F)c1 [compound 38]
isoTOP-ABPP reactivity ratio, Q5T1V6_C414 ([1]; in-vitro_ramos): 1.8
isoTOP-ABPP reactivity ratio, Q5T1V6_C414 ([1]; in-vitro_ramos_231): 0.9
isoTOP-ABPP reactivity ratio, O94953_C694 ([3]; in-vitro_ramos): 2.4
isoTOP-ABPP reactivity ratio, Q9HB90_C377 ([2]; in-vitro_ramos_231): 1.0

C=CC(=O)Nc1cc(C)c(Br)cc1C [compound 40]
isoTOP-ABPP reactivity ratio, Q5T1V6_C414 ([1]; in-vitro_ramos): 1.4

Cc1ccc(C=C(C#N)C(=O)NCCN2CCOCC2)cc1 [compound 41]
isoTOP-ABPP reactivity ratio, Q5T1V6_C414 ([1]; in-vitro_ramos): 1.0
isoTOP-ABPP reactivity ratio, Q5T1V6_C414 ([1]; in-vitro_ramos_231): 1.2
isoTOP-ABPP reactivity ratio, Q9HB90_C377 ([2]; in-vitro_ramos_231): 1.1

N#CC(=Cc1ccc(-c2ccccc2Cl)o1)C(N)=O [compound 42]
isoTOP-ABPP reactivity profile ratio, O94953_C694 ([3]; in-vitro_ramos): 0.9

COc1cc(NC(=O)CCl)cc(OC)c1 [compound 43]
isoTOP-ABPP reactivity profile ratio, O94953_C694 ([3]; in-vitro_ramos_231): 20.0

O=C(CCl)Nc1cccc2ncccc12 [compound 51]
isoTOP-ABPP reactivity profile ratio, O94953_C694 ([3]; in-vitro_ramos): 1.4
isoTOP-ABPP reactivity profile ratio, Q9HB90_C377 ([2]; in-vitro_ramos_231): 0.6

O=C(CCl)Nc1ccc(-c2ccccc2)cc1 [compound 52]
isoTOP-ABPP reactivity profile ratio, O94953_C694 ([3]; in-vitro_ramos): 1.4

C=CC(=O)N1CCC(Cc2ccccc2)CC1 [compound 53]
isoTOP-ABPP reactivity profile ratio, Q5T1V6_C414 ([1]; in-vitro_ramos_231): 0.8
isoTOP-ABPP reactivity profile ratio, Q9HB90_C377 ([2]; in-vitro_ramos): 1.1
